Assay results: patent US10760110B2, “Antibiotic testing and screening system” (priority 2017, dated 2020)

Test system: A. baumannii KW1 strains with β-lactamase plasmids
Experiment: Etest MIC of β-lactams, extended-spectrum β-lactamase, AmpC β-lactamase or carbapenemase (Table 18)
Assay type: cell-based, Acinetobacter baumannii
Description: DNA fragments of the resistance genes along with their flanking regions were amplified from clinical plasmids via PCR with specific primer pairs. The resulting PCR fragments were digested and then cloned into the plasmid pYMAb5 or pYMAb5Tc. The resulting plasmids were then transformed into A. baumannii KW1 via electroporation.
The MICs of antibiotics were determined using the Etest (Biodisk AB, Sweden) according to the manufacturer's instructions. The MICs from the Etest, which fall between standard two-fold dilutions, were rounded up to the next highest two-fold value. The MICs of ceftazidime and cefotaxime against K. pneumoniae NVT1001 harbouring the pACYC177 plasmid with blaOXA-48 were further determined using a broth microdilution test according to the recommendations of the CLSI,^25 and the results were interpreted according to the breakpoints established by the CLSI in 2017.^25 Meanwhile, due to the lack of CLSI breakpoints in 2016 and 2017, the results for cephalothin were interpreted according to the breakpoints established by the CLSI in 2015,^26 and the results for moxifloxacin were interpreted according to the breakpoints established by the EUCAST in 2017.^27

Structure (SMILES) | MIC (KW1, no supplemental plasmid) | MIC (KW1 with ADC-30 on pYMAb5) | MIC (KW1 with CTX-M-15 on pYMAb5) | MIC (KW1 with IMP-1 on pYMAb5) | MIC (KW1 with NDM-1 on pYMAb5) | MIC (KW1 with OXA-23 on pYMAb5) | MIC (KW1 with OXA-58 on pYMAb5) | MIC (KW1 with OXA-66 on pYMAb5) | MIC (KW1 with OXA-72 on pYMAb5) | MIC (KW1 with VEB-3 on pYMAb5) | MIC (KW1 with VIM-1 on pYMAb5) | MIC (KW1 with shuttle vector pYMAb5)
C[C@H]1[C@H](NC(=O)/C(=N\OC(C)(C)C(=O)O)c2csc(N)n2)C(=O)N1S(=O)(=O)O [ATM] | 16 µg/mL | 64 µg/mL | >256 µg/mL | 16 µg/mL | 12 µg/mL | 16 µg/mL | 16 µg/mL | 12 µg/mL | 16 µg/mL | >256 µg/mL | 12 µg/mL | 12 µg/mL
C[C@@H](O)[C@H]1C(=O)N2C(C(=O)O)=C(S[C@@H]3CN[C@H](CNS(N)(=O)=O)C3)[C@H](C)[C@H]12 [DOR] | 0.38 µg/mL | 4 µg/mL | 1.5 µg/mL | 16 µg/mL | >32 µg/mL | >32 µg/mL | 6 µg/mL | 8 µg/mL | >32 µg/mL | 0.38 µg/mL | >32 µg/mL | 0.38 µg/mL
C[C@@H](O)[C@H]1C(=O)N2C(C(=O)O)=C(S[C@@H]3CN[C@H](C(=O)Nc4cccc(C(=O)O)c4)C3)[C@H](C)[C@H]12 [ETP] | 3 µg/mL | >32 µg/mL | 12 µg/mL | >32 µg/mL | >32 µg/mL | >32 µg/mL | >32 µg/mL | >32 µg/mL | >32 µg/mL | 3 µg/mL | >32 µg/mL | 3 µg/mL
